# Laboratory results as given in patent publication US10722495B2, “Cyanoindazole compounds and uses thereof” (Incyte Corporation, priority 2017, dated 2020).
# Target: HPK1 (Homo sapiens (Human), UniProt Q92918)
# Experiment: HPK1 Kinase Binding Assay
# Settings: active HPK1 (SignalChem M23-11G), tracer 222, LanthaScreen Eu-Anti GST antibody, one hour incubation at 25° C.
# Experimental: Example A. HPK1 Kinase Binding Assay
# A stock solution of 1 mM test compound was prepared in DMSO. The compound plate was prepared by 3-fold and 11-point serial dilutions. 0.1 μL of the compound in DMSO was transferred from the compound plate to the white 384 well polystyrene plates. The assay buffer contained 50 mM HEPES, pH 7.5, 0.01% Tween-20, 5 mM MgCl2, 0.01% BSA, and 5 mM DTT. 5 μl of 4 nM active HPK1 (SignalChem M23-11G) prepared in the buffer was added to the plate. The enzyme concentration given was based on the given stock concentration reported by the vender. 5 μl of 18 nM tracer 222 (ThermoFisher PV6121) and 4 nM LanthaScreen Eu-Anti GST antibody (ThermoFisher PV5595) were added. After one hour incubation at 25° C., the plates were read on a PHERAstar FS plate reader (BMG Labtech). Ki values were determined.
# Sequence of HPK1 (Q92918 1-346): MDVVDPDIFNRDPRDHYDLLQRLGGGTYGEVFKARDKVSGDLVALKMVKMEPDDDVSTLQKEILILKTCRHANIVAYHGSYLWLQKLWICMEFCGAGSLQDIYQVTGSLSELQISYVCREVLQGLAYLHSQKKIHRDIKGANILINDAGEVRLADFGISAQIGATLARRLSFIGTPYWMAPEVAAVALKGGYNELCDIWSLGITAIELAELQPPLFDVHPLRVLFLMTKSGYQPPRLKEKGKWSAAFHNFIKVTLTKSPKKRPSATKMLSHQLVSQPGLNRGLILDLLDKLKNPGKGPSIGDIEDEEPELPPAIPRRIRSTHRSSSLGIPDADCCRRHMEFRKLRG
row,Ki [nM],SMILES
1,≤ 100,"CCn1cc(-c2n[nH]c3cc(C#N)c(-c4c(C)cc(CNC)cc4F)cc23)cn1 [Example 1, 3-(1-Ethyl-1H-pyrazol-4-yl)-5-(2-fluoro-6-methyl-4-((methylamino)methyl)phenyl)-1H-indazole-6-carbonitrile]"
2,≤ 100,"CNCc1cc(C)c(-c2cc3c(-c4cnn(C5CC5)c4)n[nH]c3cc2C#N)c(F)c1 [Example 2, 3-(1-Cyclopropyl-1H-pyrazol-4-yl)-5-(2-fluoro-6-methyl-4-((methylamino)methyl)phenyl)-1H-indazole-6-carbonitrile]"
3,≤ 100,"CNCc1cc(C)c(-c2cc3c(-c4cnn(CC(F)(F)F)c4)n[nH]c3cc2C#N)c(F)c1 [Example 3, 5-(2-Fluoro-6-methyl-4-((methylamino)methyl)phenyl)-3-(1-(2,2,2-trifluoroethyl)-1H-pyrazol-4-yl)-1H-indazole-6-carbonitrile]"
4,≤ 100,"CNCc1cc(C)c(-c2cc3c(-c4cn[nH]c4)n[nH]c3cc2C#N)c(F)c1 [Example 4, 5-(2-Fluoro-6-methyl-4-((methylamino)methyl)phenyl)-3-(1H-pyrazol-4-yl)-1H-indazole-6-carbonitrile]"
5,≤ 100,"CNCc1cc(C)c(-c2cc3c(-c4cnn(-c5ccccc5Cl)c4)n[nH]c3cc2C#N)c(F)c1 [Example 5, 3-(1-(2-Chlorophenyl)-1H-pyrazol-4-yl)-5-(2-fluoro-6-methyl-4-((methylamino)methyl)phenyl)-1H-indazole-6-carbonitrile]"
6,≤ 100,"CNCc1cc(C)c(-c2cc3c(-c4cnn(C(C)C)c4)n[nH]c3cc2C#N)c(F)c1 [Example 6, 5-(2-Fluoro-6-methyl-4-((methylamino)methyl)phenyl)-3-(1-isopropyl-1H-pyrazol-4-yl)-1H-indazole-6-carbonitrile]"
7,≤ 100,"CNCc1cc(C)c(-c2cc3c(-c4ccc(CO)cc4)n[nH]c3cc2C#N)c(F)c1 [Example 7, 5-(2-Fluoro-6-methyl-4-((methylamino)methyl)phenyl)-3-(4-(hydroxymethyl)phenyl)-1H-indazole-6-carbonitrile]"
8,≤ 100,"CNCc1cc(C)c(-c2cc3c(-c4ccc(C(=O)NC)cc4)n[nH]c3cc2C#N)c(F)c1 [Example 8, 4-(6-Cyano-5-(2-fluoro-6-methyl-4-((methylamino)methyl)phenyl)-1H-indazol-3-yl)-N-methylbenzamide]"
9,≤ 100,"CNCc1cc(C)c(-c2cc3c(-c4ccc(C(=O)N(C)C)cc4)n[nH]c3cc2C#N)c(F)c1 [Example 9, 4-(6-Cyano-5-(2-fluoro-6-methyl-4-((methylamino)methyl)phenyl)-1H-indazol-3-yl)-N,N-dimethylbenzamide]"
10,≤ 100,"CNCc1cc(C)c(-c2cc3c(-c4ccc(NC(C)=O)cc4)n[nH]c3cc2C#N)c(F)c1 [Example 10, N-(4-(6-Cyano-5-(2-fluoro-6-methyl-4-((methylamino)methyl)phenyl)-1H-indazol-3-yl)phenyl)acetamide]"
11,≤ 100,"CNCc1cc(C)c(-c2cc3c(-c4ccc(C)cc4)n[nH]c3cc2C#N)c(F)c1 [Example 11, 5-(2-Fluoro-6-methyl-4-((methylamino)methyl)phenyl)-3-p-tolyl-1H-indazole-6-carbonitrile]"
12,≤ 100,"CNCc1cc(C)c(-c2cc3c(-c4cccc(OC)c4)n[nH]c3cc2C#N)c(F)c1 [Example 12, 5-(2-Fluoro-6-methyl-4-((methylamino)methyl)phenyl)-3-(3-methoxyphenyl)-1H-indazole-6-carbonitrile]"
13,≤ 100,"CNCc1cc(C)c(-c2cc3c(-c4ccc(OC)cc4)n[nH]c3cc2C#N)c(F)c1 [Example 13, 5-(2-Fluoro-6-methyl-4-((methylamino)methyl)phenyl)-3-(4-methoxyphenyl)-1H-indazole-6-carbonitrile]"
14,≤ 100,"CNCc1cc(C)c(-c2cc3c(-c4ccc(C(F)(F)F)cc4)n[nH]c3cc2C#N)c(F)c1 [Example 14, 5-(2-Fluoro-6-methyl-4-((methylamino)methyl)phenyl)-3-(4-(trifluoromethyl)phenyl)-1H-indazole-6-carbonitrile]"
15,≤ 100,"CNCc1cc(C)c(-c2cc3c(-c4ccc(C5CC5)cc4)n[nH]c3cc2C#N)c(F)c1 [Example 15, 3-(4-Cyclopropylphenyl)-5-(2-fluoro-6-methyl-4-((methylamino)methyl)phenyl)-1H-indazole-6-carbonitrile]"
16,≤ 100,"CNCc1cc(C)c(-c2cc3c(-c4ccc(CC#N)cc4)n[nH]c3cc2C#N)c(F)c1 [Example 16, 3-(4-(Cyanomethyl)phenyl)-5-(2-fluoro-6-methyl-4-((methylamino)methyl)phenyl)-1H-indazole-6-carbonitrile]"
17,≤ 100,"CNCc1cc(C)c(-c2cc3c(-c4ccc(C(=O)NC)c(F)c4)n[nH]c3cc2C#N)c(F)c1 [Example 17, 4-(6-Cyano-5-(2-fluoro-6-methyl-4-((methylamino)methyl)phenyl)-1H-indazol-3-yl)-2-fluoro-N-methylbenzamide]"
18,≤ 100,"CNCc1cc(C)c(-c2cc3c(-c4ccc(S(C)(=O)=O)cc4)n[nH]c3cc2C#N)c(F)c1 [Example 18, 5-(2-Fluoro-6-methyl-4-((methylamino)methyl)phenyl)-3-(4-(methylsulfonyl)phenyl)-1H-indazole-6-carbonitrile]"
19,≤ 100,"CNCc1cc(C)c(-c2cc3c(-c4ccc(C(C)(C)C#N)cc4)n[nH]c3cc2C#N)c(F)c1 [Example 19, 3-(4-(2-Cyanopropan-2-yl)phenyl)-5-(2-fluoro-6-methyl-4-((methylamino)methyl)phenyl)-1H-indazole-6-carbonitrile]"
20,≤ 100,"CNCc1cc(C)c(-c2cc3c(-c4ccc(C5(C#N)CC5)cc4)n[nH]c3cc2C#N)c(F)c1 [Example 20, 3-(4-(1-Cyanocyclopropyl)phenyl)-5-(2-fluoro-6-methyl-4-((methylamino)methyl)phenyl)-1H-indazole-6-carbonitrile]"
21,≤ 100,"CNCc1cc(C)c(-c2cc3c(-c4ccc(C(=O)N(C)C)c(F)c4)n[nH]c3cc2C#N)c(F)c1 [Example 21, 4-(6-Cyano-5-(2-fluoro-6-methyl-4-((methylamino)methyl)phenyl)-1H-indazol-3-yl)-2-fluoro-N,N-dimethylbenzamide]"
22,≤ 100,"CNCc1cc(C)c(-c2cc3c(-c4ccc(C(=O)NC(C)C)cc4Cl)n[nH]c3cc2C#N)c(F)c1 [Example 22, 3-Chloro-4-(6-cyano-5-(2-fluoro-6-methyl-4-((methylamino)methyl)phenyl)-1H-indazol-3-yl)-N-isopropylbenzamide]"
23,≤ 100,"CNCc1cc(C)c(-c2cc3c(-c4ccc(S(C)(=O)=O)c(F)c4)n[nH]c3cc2C#N)c(F)c1 [Example 23, 3-(3-Fluoro-4-(methylsulfonyl)phenyl)-5-(2-fluoro-6-methyl-4-((methylamino)methyl)phenyl)-1H-indazole-6-carbonitrile]"
24,≤ 100,"CNCc1cc(C)c(-c2cc3c(-c4ccc(S(C)(=O)=O)cc4Cl)n[nH]c3cc2C#N)c(F)c1 [Example 24, 3-(2-Chloro-4-(methylsulfonyl)phenyl)-5-(2-fluoro-6-methyl-4-((methylamino)methyl)phenyl)-1H-indazole-6-carbonitrile]"
25,≤ 100,"CNCc1cc(C)c(-c2cc3c(-c4ccc(S(=O)(=O)C(C)C)cc4)n[nH]c3cc2C#N)c(F)c1 [Example 25, 5-(2-Fluoro-6-methyl-4-((methylamino)methyl)phenyl)-3-(4-(isopropylsulfonyl)phenyl)-1H-indazole-6-carbonitrile]"
